According to the NIST ThermoML archive (doi:10.1016/j.jct.2016.03.036):
“And” between values parts separate entries of the source, which are not always exact repeats. Identical values can stand only once. ± gives the expanded uncertainty stated by the source.

Assay: xn = mol fraction of the nth substance listed
Conditions: Gas, Spherical resonator

[Ar] [argon] + O=C=O
Conditions | speed of sound
274.99 K, 4022.9 kPa, x2 = 0.501 | 263.92 ± 0.45 m/s and 263.91 ± 0.45 m/s
274.99 K, 4023.2 kPa, x2 = 0.501 | 263.86 ± 0.45 m/s
274.99 K, 6072.9 kPa, x2 = 0.501 | 257.99 ± 0.44 m/s and 257.96 ± 0.44 m/s
274.99 K, 6073.3 kPa, x2 = 0.501 | 258.01 ± 0.44 m/s
275 K, 2006.3 kPa, x2 = 0.501 | 270.61 ± 0.46 m/s and 270.59 ± 0.46 m/s
275 K, 2006.4 kPa, x2 = 0.501 | 270.44 ± 0.46 m/s
275 K, 8215.3 kPa, x2 = 0.501 | 254.18 ± 0.43 m/s and 254.17 ± 0.43 m/s
275 K, 8216.3 kPa, x2 = 0.501 | 253.76 ± 0.43 m/s
276.09 K, 501.14 kPa, x2 = 0.7498 | 264.91 ± 0.45 m/s
276.09 K, 1998.9 kPa, x2 = 0.7498 | 255.17 ± 0.49 m/s and 255.16 ± 0.44 m/s
276.09 K, 1999 kPa, x2 = 0.7498 | 255.07 ± 0.43 m/s
276.09 K, 4003.2 kPa, x2 = 0.7498 | 240.29 ± 0.41 m/s
276.09 K, 4003.3 kPa, x2 = 0.7498 | 240.28 ± 0.41 m/s
276.09 K, 4003.6 kPa, x2 = 0.7498 | 240.29 ± 0.41 m/s
276.09 K, 4995.2 kPa, x2 = 0.7498 | 231.83 ± 0.41 m/s and 231.82 ± 0.41 m/s
276.09 K, 4995.7 kPa, x2 = 0.7498 | 232.3 ± 0.41 m/s
276.09 K, 5295.4 kPa, x2 = 0.7498 | 229.02 ± 0.41 m/s and 229.01 ± 0.41 m/s
276.09 K, 5296 kPa, x2 = 0.7498 | 229.56 ± 0.41 m/s
276.09 K, 5399.3 kPa, x2 = 0.7498 | 228 ± 0.41 m/s
276.09 K, 5399.8 kPa, x2 = 0.7498 | 228.57 ± 0.41 m/s
276.09 K, 5502.4 kPa, x2 = 0.7498 | 226.98 ± 0.41 m/s
276.09 K, 5503 kPa, x2 = 0.7498 | 227.57 ± 0.4 m/s
290.01 K, 485.29 kPa, x2 = 0.7498 | 271.44 ± 0.46 m/s
290.01 K, 1978.9 kPa, x2 = 0.7498 | 263.38 ± 0.45 m/s and 263.41 ± 0.45 m/s
290.01 K, 1979 kPa, x2 = 0.7498 | 263.3 ± 0.45 m/s
290.01 K, 4023.1 kPa, x2 = 0.7498 | 251.71 ± 0.43 m/s and 251.65 ± 0.43 m/s
290.01 K, 4023.4 kPa, x2 = 0.7498 | 251.64 ± 0.43 m/s
290.01 K, 6011.9 kPa, x2 = 0.7498 | 239.66 ± 0.41 m/s
290.01 K, 6012.1 kPa, x2 = 0.7498 | 239.67 ± 0.41 m/s
290.01 K, 6012.7 kPa, x2 = 0.7498 | 240.25 ± 0.41 m/s
290.01 K, 8057 kPa, x2 = 0.7498 | 227.35 ± 0.4 m/s
290.01 K, 8057.4 kPa, x2 = 0.7498 | 227.74 ± 0.4 m/s
290.02 K, 8057.1 kPa, x2 = 0.7498 | 227.32 ± 0.4 m/s
299.85 K, 8170.1 kPa, x2 = 0.501 | 275.03 ± 0.47 m/s
299.85 K, 8170.2 kPa, x2 = 0.501 | 275.04 ± 0.47 m/s
299.85 K, 8170.7 kPa, x2 = 0.501 | 275.13 ± 0.47 m/s
299.94 K, 1986.8 kPa, x2 = 0.501 | 283.88 ± 0.48 m/s and 283.89 ± 0.48 m/s
299.94 K, 1987 kPa, x2 = 0.501 | 283.79 ± 0.48 m/s
299.94 K, 4020.8 kPa, x2 = 0.501 | 279.77 ± 0.47 m/s
299.95 K, 494.36 kPa, x2 = 0.501 | 287.27 ± 0.48 m/s
299.95 K, 4020.5 kPa, x2 = 0.501 | 279.84 ± 0.47 m/s and 279.82 ± 0.47 m/s
299.95 K, 6007.5 kPa, x2 = 0.501 | 276.82 ± 0.47 m/s
299.95 K, 6007.9 kPa, x2 = 0.501 | 276.82 ± 0.47 m/s
299.95 K, 7657.9 kPa, x2 = 0.501 | 275.37 ± 0.47 m/s
299.95 K, 7658 kPa, x2 = 0.501 | 275.38 ± 0.47 m/s
299.96 K, 7658.9 kPa, x2 = 0.501 | 275.44 ± 0.47 m/s
310 K, 5999.6 kPa, x2 = 0.7498 | 258 ± 0.44 m/s
310.01 K, 488.28 kPa, x2 = 0.7498 | 280.3 ± 0.47 m/s
310.01 K, 1980.9 kPa, x2 = 0.7498 | 274.11 ± 0.46 m/s and 274.12 ± 0.46 m/s
310.01 K, 1981 kPa, x2 = 0.7498 | 274.01 ± 0.46 m/s
310.01 K, 4023.9 kPa, x2 = 0.7498 | 265.68 ± 0.45 m/s and 265.67 ± 0.45 m/s
310.01 K, 4024.2 kPa, x2 = 0.7498 | 265.61 ± 0.45 m/s
310.01 K, 5999.7 kPa, x2 = 0.7498 | 257.99 ± 0.44 m/s
310.01 K, 6000.2 kPa, x2 = 0.7498 | 258.01 ± 0.44 m/s
310.01 K, 8062.5 kPa, x2 = 0.7498 | 251.41 ± 0.43 m/s
310.01 K, 8062.7 kPa, x2 = 0.7498 | 251.51 ± 0.43 m/s
310.01 K, 8063.3 kPa, x2 = 0.7498 | 251.52 ± 0.43 m/s
